Laboratory results as given in patent US10369138B2, “Monobactam organic compounds for the treatment of bacterial infections” (Novartis AG, priority 2014, dated 2019).
≈ marks a conversion by molar mass, not a printed value.

What was measured:
E. coli containing KPC-2 = assay: MIC by broth microdilution, E. coli containing KPC-2 (Ec KPC2 Iso); type: cell-based; details: Escherichia coli, read-out: Ec KPC2 Iso (MIC), E. coli containing KPC-2 (carbapenemase from Klebsiella pneumoniae)
Method in brief: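 Host E. coli BW25113 pspB carrying multicopy pBAD18-kan plasmid with constitutive TEM-promoter KPC-2 expression (periplasmic signal sequence); broth microdilution per CLSI in cation-adjusted Mueller-Hinton broth, inoculum ~5×10^5 CFU/mL, compounds twofold serially diluted from DMSO masters (10% DMSO in dilution series added).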

E. coli strain 25922 = assay: MIC by broth microdilution, E. coli strain 25922; type: cell-based; details: Escherichia coli, 25922, E. coli strain 25922; read-out: Ec 25922 (MIC)
Method in brief: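 CLSI broth microdilution in cation-adjusted Mueller-Hinton broth, inoculum about 5×10^5 CFU/mL, 10% DMSO from the diluted series, 20 h at 35-37° C. MIC is the lowest concentration preventing visible growth, read by eye and at 600 nm.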

## N=C(NCc1cnn(C[C@@H]2[C@H](NC(=O)/C(=N\OC3(C(=O)O)CC3)c3csc(N)n3)C(=O)N2S(=O)(=O)O)n1)NCC1CNC1 [Example 126, 1-(((Z)-(1-(2-aminothiazol-4-yl)-2-(((2R,3S)-2-((4-((3-(azetidin-3-ylmethyl)guanidino)methyl)-2H-1,2,3-triazol-2-yl)methyl)-4-oxo-1-sulfoazetidin-3-yl)amino)-2-oxoethylidene)amino)oxy)cyclopropanecarboxylic acid]
E. coli containing KPC-2
  MIC: 0.5 µg/mL (≈ 0.78 µM)
E. coli strain 25922
  MIC: 0.5 µg/mL (≈ 0.78 µM)

## N=C(NCc1cnn(C[C@@H]2[C@H](NC(=O)/C(=N\OC3(C(=O)O)CC3)c3csc(N)n3)C(=O)N2S(=O)(=O)O)n1)N1CC(CN)C1 [Example 127, 1-(((Z)-(2-(((2R,3S)-2-((4-((3-(aminomethyl)azetidine-1-carboximidamido)methyl)-2H-1,2,3-triazol-2-yl)methyl)-4-oxo-1-sulfoazetidin-3-yl)amino)-1-(2-aminothiazol-4-yl)-2-oxoethylidene)amino)oxy)cyclopropanecarboxylic acid]
E. coli containing KPC-2
  MIC: 0.25 µg/mL (≈ 0.39 µM)
E. coli strain 25922
  MIC: 0.25 µg/mL (≈ 0.39 µM)

## N=C(NCc1cnn(C[C@@H]2[C@H](NC(=O)/C(=N\OC3(C(=O)O)CC3)c3csc(N)n3)C(=O)N2S(=O)(=O)O)n1)NC1CCNCC1 [Example 128, 1-(((Z)-(1-(2-aminothiazol-4-yl)-2-oxo-2-(((3S,4R)-2-oxo-4-((4-((3-(piperidin-4-yl)guanidino)methyl)-2H-1,2,3-triazol-2-yl)methyl)-1-sulfoazetidin-3-yl)amino)ethylidene)amino)oxy)cyclopropanecarboxylic acid]
E. coli containing KPC-2
  MIC: 1 µg/mL (≈ 1.53 µM)
E. coli strain 25922
  MIC: 0.5 µg/mL (≈ 0.764 µM)

## N=C(NCCN)NCc1cnn(C[C@@H]2[C@H](NC(=O)/C(=N\OC3(C(=O)O)CC3)c3csc(N)n3)C(=O)N2S(=O)(=O)O)n1 [Example 129, 1-(((Z)-(2-(((2R,3S)-2-((4-((3-(2-aminoethyl)guanidino)methyl)-2H-1,2,3-triazol-2-yl)methyl)-4-oxo-1-sulfoazetidin-3-yl)amino)-1-(2-aminothiazol-4-yl)-2-oxoethylidene)amino)oxy)cyclopropanecarboxylic acid]
E. coli containing KPC-2
  MIC: 1 µg/mL (≈ 1.63 µM)
E. coli strain 25922
  MIC: 0.5 µg/mL (≈ 0.814 µM)

## N=C(N)N(CCCN)Cc1cnn(C[C@@H]2[C@H](NC(=O)/C(=N\OC3(C(=O)O)CC3)c3csc(N)n3)C(=O)N2S(=O)(=O)O)n1 [Example 130, 1-(((Z)-(2-(((2R,3S)-2-((4-((1-(3-aminopropyl)guanidino)methyl)-2H-1,2,3-triazol-2-yl)methyl)-4-oxo-1-sulfoazetidin-3-yl)amino)-1-(2-aminothiazol-4-yl)-2-oxoethylidene)amino)oxy)cyclopropanecarboxylic acid]
E. coli containing KPC-2
  MIC: 2 µg/mL (≈ 3.18 µM)
E. coli strain 25922
  MIC: 1 µg/mL (≈ 1.59 µM)

## CC(C)(N)CCNCc1cnn(C[C@@H]2[C@H](NC(=O)/C(=N\OC3(C(=O)O)CC3)c3csc(N)n3)C(=O)N2S(=O)(=O)O)n1 [Example 131, 1-(((Z)-(2-(((2R,3S)-2-((4-(((3-amino-3-methylbutyl)amino)methyl)-2H-1,2,3-triazol-2-yl)methyl)-4-oxo-1-sulfoazetidin-3-yl)amino)-1-(2-aminothiazol-4-yl)-2-oxoethylidene)amino)oxy)cyclopropanecarboxylic acid]
E. coli containing KPC-2
  MIC: 2 µg/mL (≈ 3.25 µM)
E. coli strain 25922
  MIC: 1 µg/mL (≈ 1.63 µM)

## CC(C)(CCN)NCc1cnn(C[C@@H]2[C@H](NC(=O)/C(=N\OC3(C(=O)O)CC3)c3csc(N)n3)C(=O)N2S(=O)(=O)O)n1 [Example 132, 1-(((Z)-(2-(((2R,3S)-2-((4-(((4-amino-2-methylbutan-2-yl)amino)methyl)-2H-1,2,3-triazol-2-yl)methyl)-4-oxo-1-sulfoazetidin-3-yl)amino)-1-(2-aminothiazol-4-yl)-2-oxoethylidene)amino)oxy)cyclopropanecarboxylic acid]
E. coli containing KPC-2
  MIC: 1 µg/mL (≈ 1.63 µM)
E. coli strain 25922
  MIC: 1 µg/mL (≈ 1.63 µM)

## NCCOC(=O)NCc1cnn(C[C@@H]2[C@H](NC(=O)/C(=N\OC3(C(=O)O)CC3)c3csc(N)n3)C(=O)N2S(=O)(=O)O)n1 [Example 133, 1-(((Z)-(2-(((2R,3S)-2-((4-((((2-aminoethoxy)carbonyl)amino)methyl)-2H-1,2,3-triazol-2-yl)methyl)-4-oxo-1-sulfoazetidin-3-yl)amino)-1-(2-aminothiazol-4-yl)-2-oxoethylidene)amino)oxy)cyclopropanecarboxylic acid]
E. coli containing KPC-2
  MIC: 0.5 µg/mL (≈ 0.811 µM)
E. coli strain 25922
  MIC: 1 µg/mL (≈ 1.62 µM)

## NCC(=O)NCc1cnn(C[C@@H]2[C@H](NC(=O)/C(=N\OC3(C(=O)O)CC3)c3csc(N)n3)C(=O)N2S(=O)(=O)O)n1 [Example 134, 1-(((Z)-(2-(((2R,3S)-2-((4-((2-aminoacetamido)methyl)-2H-1,2,3-triazol-2-yl)methyl)-4-oxo-1-sulfoazetidin-3-yl)amino)-1-(2-aminothiazol-4-yl)-2-oxoethylidene)amino)oxy)cyclopropanecarboxylic acid]
E. coli containing KPC-2
  MIC: 0.25 µg/mL (≈ 0.426 µM)
E. coli strain 25922
  MIC: 0.5 µg/mL (≈ 0.852 µM)

## NCCNC(=O)NCc1cnn(C[C@@H]2[C@H](NC(=O)/C(=N\OC3(C(=O)O)CC3)c3csc(N)n3)C(=O)N2S(=O)(=O)O)n1 [Example 135, 1-(((Z)-(2-(((2R,3S)-2-((4-((3-(2-aminoethyl)ureido)methyl)-2H-1,2,3-triazol-2-yl)methyl)-4-oxo-1-sulfoazetidin-3-yl)amino)-1-(2-aminothiazol-4-yl)-2-oxoethylidene)amino)oxy)cyclopropanecarboxylic acid]
E. coli containing KPC-2
  MIC: 0.5 µg/mL (≈ 0.812 µM)
E. coli strain 25922
  MIC: 0.5 µg/mL (≈ 0.812 µM)

## NCCCNC(=O)NCc1cnn(C[C@@H]2[C@H](NC(=O)/C(=N\OC3(C(=O)O)CC3)c3csc(N)n3)C(=O)N2S(=O)(=O)O)n1 [Example 136, 1-(((Z)-(2-(((2R,3S)-2-((4-((3-(3-aminopropyl)ureido)methyl)-2H-1,2,3-triazol-2-yl)methyl)-4-oxo-1-sulfoazetidin-3-yl)amino)-1-(2-aminothiazol-4-yl)-2-oxoethylidene)amino)oxy)cyclopropanecarboxylic acid]
E. coli containing KPC-2
  MIC: 0.5 µg/mL (≈ 0.794 µM)
E. coli strain 25922
  MIC: 0.5 µg/mL (≈ 0.794 µM)

## C[n+]1cccc(CNCc2cnn(C[C@@H]3[C@H](NC(=O)/C(=N\OC4(C(=O)O)CC4)c4csc(N)n4)C(=O)N3S(=O)(=O)O)n2)c1 [Example 137, (2R,3S)-3-((Z)-2-(2-aminothiazol-4-yl)-2-((1-carboxycyclopropoxy)-imino)acetamido)-2-((4-((((1-methylpyridin-1-ium-3-yl)methyl)amino)methyl)-2H-1,2,3-triazol-2-yl)methyl)-4-oxoazetidine-1-sulfonate]
E. coli containing KPC-2
  MIC: 0.5 µg/mL
E. coli strain 25922
  MIC: 1 µg/mL

## Nc1nc(/C(=N/OC2(C(=O)O)CC2)C(=O)N[C@@H]2C(=O)N(S(=O)(=O)O)[C@@H]2Cn2ncc(CN3CCC(N)CC3)n2)cs1 [Example 138, 1-(((Z)-(2-(((2R,3S)-2-((4-((4-aminopiperidin-1-yl)methyl)-2H-1,2,3-triazol-2-yl)methyl)-4-oxo-1-sulfoazetidin-3-yl)amino)-1-(2-aminothiazol-4-yl)-2-oxoethylidene)amino)oxy)cyclopropanecarboxylic acid]
E. coli containing KPC-2
  MIC: 1 µg/mL (≈ 1.63 µM)
E. coli strain 25922
  MIC: 0.5 µg/mL (≈ 0.816 µM)

## Nc1nc(/C(=N/OC2(C(=O)O)CC2)C(=O)N[C@@H]2C(=O)N(S(=O)(=O)O)[C@@H]2Cn2ncc(CSC3Cn4cnc[n+]4C3)n2)cs1 (stereo partly drawn) [Example 139, (2R,3S)-3-((Z)-2-(2-aminothiazol-4-yl)-2-((1-carboxycyclopropoxy)imino)acetamido)-2-((4-(((6,7-dihydro-5H-pyrazolo[1,2-a][1,2,4]triazol-4-ium-6-yl)thio)methyl)-2H-1,2,3-triazol-2-yl)methyl)-4-oxoazetidine-1-sulfonate]
E. coli containing KPC-2
  MIC: 4 µg/mL
E. coli strain 25922
  MIC: 1 µg/mL

## N=C(NCc1cnn(C[C@@H]2[C@H](NC(=O)/C(=N\OC3(C(=O)O)CC3)c3csc(N)n3)C(=O)N2S(=O)(=O)O)n1)N[C@H]1C[C@@H](N)C1 [Example 140, 1-(((Z)-(2-(((2R,3S)-2-((4-((3-((1 s,3S)-3-aminocyclobutyl)guanidino)methyl)-2H-1,2,3-triazol-2-yl)methyl)-4-oxo-1-sulfoazetidin-3-yl)amino)-1-(2-aminothiazol-4-yl)-2-oxoethylidene)amino)oxy)cyclopropanecarboxylic acid]
E. coli containing KPC-2
  MIC: 0.25 µg/mL (≈ 0.39 µM)
E. coli strain 25922
  MIC: 0.25 µg/mL (≈ 0.39 µM)

## N=C(NCc1cnn(C[C@@H]2[C@H](NC(=O)/C(=N\OC3(C(=O)O)CC3)c3csc(N)n3)C(=O)N2S(=O)(=O)O)n1)N[C@H]1CCNC1 [Example 141, 1-(((Z)-(1-(2-aminothiazol-4-yl)-2-oxo-2-(((3S,4R)-2-oxo-4-((4-((3-((S)-pyrrolidin-3-yl)guanidino)methyl)-2H-1,2,3-triazol-2-yl)methyl)-1-sulfoazetidin-3-yl)amino)ethylidene)amino)oxy)cyclopropanecarboxylic acid]
E. coli containing KPC-2
  MIC: 0.5 µg/mL (≈ 0.78 µM)
E. coli strain 25922
  MIC: 0.5 µg/mL (≈ 0.78 µM)

## Cc1nn(C[C@@H]2[C@H](NC(=O)/C(=N\OC3(C(=O)O)CC3)c3csc(N)n3)C(=O)N2S(=O)(=O)O)nc1CN [Example 143, 1-(((Z)-(2-(((2R,3S)-2-((4-(aminomethyl)-5-methyl-2H-1,2,3-triazol-2-yl)methyl)-4-oxo-1-sulfoazetidin-3-yl)amino)-1-(2-aminothiazol-4-yl)-2-oxoethylidene)amino)oxy)cyclopropanecarboxylic acid]
E. coli containing KPC-2
  MIC: 0.25 µg/mL (≈ 0.46 µM)
E. coli strain 25922
  MIC: 0.5 µg/mL (≈ 0.92 µM)

## Cc1nn(C[C@@H]2[C@H](NC(=O)/C(=N\OC3(C(=O)O)CC3)c3csc(N)n3)C(=O)N2S(=O)(=O)O)nc1CNC(=N)NCCCN [Example 144, 1-(((Z)-(2-(((2R,3S)-2-((4-((3-(3-aminopropyl)guanidino)methyl)-5-methyl-2H-1,2,3-triazol-2-yl)methyl)-4-oxo-1-sulfoazetidin-3-yl)amino)-1-(2-aminothiazol-4-yl)-2-oxoethylidene)amino)oxy)cyclopropanecarboxylic acid]
E. coli containing KPC-2
  MIC: 1 µg/mL (≈ 1.56 µM)
E. coli strain 25922
  MIC: 1 µg/mL (≈ 1.56 µM)
